Assay results published in PMC2600811 (Neuropharmacology, 2008).

Legend:
mGluR1a = mGluR1a (Rattus norvegicus, UniProt P23385); assay: ERK1/2 phosphorylation assay; details: for P-ERK1/2 response as % of the response to a maximal concentration of glutamate: 1 µM PAM, no exogenously added agonist
rat mGluR1a [1] = molecular target: T1, rat mGluR1a (Rattus norvegicus, UniProt P23385); assay: Calcium mobilization; type: cell-based; details: fixed 1 µM compound, 10 min pre-incubation
rat mGluR1a [2] = molecular target: T1, rat mGluR1a; details: 500 nM compound, absence of glutamate
rat mGlu1a receptor [3] = molecular target: T2, rat mGlu1a receptor (Rattus norvegicus, UniProt P23385); assay: biochemical
T2 sequence (P23385 19-1199): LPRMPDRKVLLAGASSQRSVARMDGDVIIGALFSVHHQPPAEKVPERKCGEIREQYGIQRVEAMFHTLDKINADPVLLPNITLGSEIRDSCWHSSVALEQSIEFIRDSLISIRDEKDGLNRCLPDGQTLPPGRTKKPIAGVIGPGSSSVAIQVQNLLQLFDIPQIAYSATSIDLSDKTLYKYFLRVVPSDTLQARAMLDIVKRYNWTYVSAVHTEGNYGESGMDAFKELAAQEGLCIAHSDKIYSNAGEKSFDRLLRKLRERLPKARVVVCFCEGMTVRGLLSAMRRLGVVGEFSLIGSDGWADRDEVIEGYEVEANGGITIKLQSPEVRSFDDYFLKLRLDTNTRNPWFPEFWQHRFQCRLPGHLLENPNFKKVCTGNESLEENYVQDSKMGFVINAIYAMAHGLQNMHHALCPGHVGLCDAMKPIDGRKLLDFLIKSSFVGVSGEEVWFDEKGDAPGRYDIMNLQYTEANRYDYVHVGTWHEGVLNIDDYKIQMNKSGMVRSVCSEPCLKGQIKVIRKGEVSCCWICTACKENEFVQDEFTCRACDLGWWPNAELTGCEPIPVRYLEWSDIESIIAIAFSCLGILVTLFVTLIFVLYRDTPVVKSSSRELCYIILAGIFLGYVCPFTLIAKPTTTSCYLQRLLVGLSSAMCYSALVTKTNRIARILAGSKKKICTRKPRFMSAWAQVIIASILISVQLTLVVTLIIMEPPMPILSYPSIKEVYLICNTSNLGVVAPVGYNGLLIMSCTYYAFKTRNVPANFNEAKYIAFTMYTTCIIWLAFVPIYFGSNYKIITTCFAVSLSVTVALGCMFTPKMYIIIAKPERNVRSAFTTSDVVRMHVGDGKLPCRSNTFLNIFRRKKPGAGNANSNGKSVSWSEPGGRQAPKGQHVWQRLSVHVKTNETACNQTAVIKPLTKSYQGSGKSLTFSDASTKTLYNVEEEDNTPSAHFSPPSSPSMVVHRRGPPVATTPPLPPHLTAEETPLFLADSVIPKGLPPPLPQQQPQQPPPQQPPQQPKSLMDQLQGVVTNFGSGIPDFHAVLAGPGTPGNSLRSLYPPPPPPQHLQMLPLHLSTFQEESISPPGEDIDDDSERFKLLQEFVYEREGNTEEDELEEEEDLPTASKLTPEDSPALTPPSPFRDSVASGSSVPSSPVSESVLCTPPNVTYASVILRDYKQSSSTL

rat mGlu1a receptor [4] = molecular target: T2, rat mGlu1a receptor; details: saturation binding, BHK-mGluR1a membranes

T1 sequence (P23385 19-1199): as above
Sequence of mGluR1a (P23385 19-1199): as above

With `CCCCOC(=O)NC(=O)C1c2ccccc2Oc2ccccc21` [Ro 67-4853, butyl (9H-xanthene-9-carbonyl)carbamate] the EC50 (mGluR1a) was 9.2 ± 6.2 nM, the “P-ERK1/2 response as % of the response to a maximal concentration of glutamate” value (“P-ERK1/2 response as % of the response” below) (mGluR1a) was 114.4 ± 29.0% and the “leftward shift of the glutamate concentration-response curve (calcium)” value (from here on “leftward shift … (calcium)”) (rat mGluR1a [1]) was roughly 15 fold. The “increase of basal cAMP accumulation” value (rat mGluR1a [2]) was 30%.
In the case of `O=C(Cc1ccccc1)c1ccc2nc3c(cc2c1)CCCO3` [R214127, 1-(3,4-dihydro-2H-pyrano[2,3-b]quinolin-7-yl)-2-phenyl-1-ethanone], the “effect on basal ERK1/2 phosphorylation” value (mGluR1a; antagonist alone (100 nM R214127 or 10 µM LY341495)) is reported as “does not effect basal ERK1/2 phosphorylation”, the Kd (rat mGlu1a receptor [3]) is reported as 2.8 ± 0.3 nM and the Bmax (rat mGlu1a receptor [4]) is reported as 3817 ± 226 fmol/mg of protein.
For `CCOC(=O)NC(=O)C(c1ccccc1)c1ccccc1` [Ro 01-6128, ethyl diphenylacetylcarbamate], the “P-ERK1/2 response as % of the response” value (mGluR1a) was 119.5 ± 17.3%, the “leftward shift … (calcium)” value (rat mGluR1a [1]) was “approximately 2 fold” and the “increase of basal cAMP accumulation” value (rat mGluR1a [2]) was “approximately 7%”.
`Cc1ccc(S(=O)(=O)N2CCC[C@H]2c2ccc(F)cc2)cc1` (racemic) [Ro 67-7476, (S)-2-(4-fluorophenyl)-1-(toluene-4-sulfonyl)pyrrolidine] was tested, and the EC50 (mGluR1a) was 163 ± 44.8 nM, the “P-ERK1/2 response as % of the response” value (mGluR1a) was 120.4 ± 1.9% and the “leftward shift … (calcium)” value (rat mGluR1a [1]) was roughly 4.5 fold. For the same compound, the “increase of basal cAMP accumulation” value (rat mGluR1a [2]) was 8%.
